Measurements taken from patent US20110105326A1, “Method for Enhancing the Rainfastness of Glyphosate” (BASF SE, priority 2008, published 2011).

Assays:
Assay type in all cases: in vivo
[1] = tested on: Brachiaria decumbens (BRADE); experiment: herbicidal action with/without simulated rainfall after treatment, Brachiaria decumbens; set-up: key: % damage vs untreated control; 0 = no damage, 100 = complete destruction; conditions: 180 g/ha lactofen, 1080 g/ha glyphosate; for herbicidal action against Brachiaria decumbens (BRADE): control without simulated rainfall, Example 14.1; for herbicidal action aaainst BRADE: simulated rainfall 30 min after treatment, Example 14.2; for herbicidal action against BRADE: simulated rainfall 6 hours after treatment, Example 14.3
Experimental: (§1) The enhancement of the rainfastness of glyphosate was determined via the herbicidal activity of the mixture comprising glyphosate and the respective rainfastness enhancing herbicidal component B as well as of the single herbicidal components in relation to simulated rainfall at different time intervals.
(§2) The evaluation of the damage caused by the method and the compositions the according to the present invention and the single herbicidal components was carried out using a scale from 0 to 100%, compared to the untreated control plots. Here, 0 means no damage and 100 means complete destruction of the plants of a respective weed or crop species.
(§3) The application was performed with a fixed spayer system with air pressurization and with a tank spray volume of two liters. The speed of the spray device over the plants was adjusted for a spray volume of 200 I/ha. The spray device was a spray barr with four nozzles from the type Teejet XR 11002VS with a space of 50 cm between each nozzle.
(§4) The application was performed at a weed stage of 6 to 8 leaves. After the application of the formulated herbicides the leaves were washed through rain of 20 mm using a fixed rain simulator system at following time interval: 15 min, 30 min, 1, 2, 3, 4 and 6 hours after treatment.

[2] = tested on: Euphorbia heterophylla (EUPHO); experiment: herbicidal action with/without simulated rainfall after treatment, Euphorbia heterophylla; set-up: key: % damage vs untreated control: 0 = no damage, 100 = complete destruction; conditions: 180 g/ha lactofen, 1080 g/ha glyphosate; for herbicidal action against Euphorbia heterophylla (EUPHO): control without simulated rainfall, Example 13.1
Experimental: as §1, §2, §3, §4

[3] = tested on: Echinochloa colonum (ECHCO); experiment: herbicidal action with/without simulated rainfall after treatment, Echinochloa colonum; set-up: key: % damage vs untreated control; 0 = no damage, 100 = complete destruction; conditions: 180 g/ha lactofen, 1080 g/ha glyphosate; for herbicidal action against Echinochloa colonum (ECHCO): control without simulated rainfall, Example 12.1
Experimental: as §1, §2, §3, §4

CCOC(=O)C(C)OC(=O)c1cc(Oc2ccc(C(F)(F)F)cc2Cl)ccc1[N+](=O)[O-] (stereo not drawn) [Lactofen, lactofen]
herbicidal action against Brachiaria decumbens (BRADE) ([1]; 1 DAA): 5 | herbicidal action against Brachiaria decumbens (BRADE) ([1]; 2 DAA): 9 | herbicidal action against Brachiaria decumbens (BRADE) ([1]; 3 DAA): 8.66 | herbicidal action against Brachiaria decumbens (BRADE) ([1]; 7 DAA): 14 | herbicidal action aaainst BRADE ([1]; 1 DAA): 5 | herbicidal action aaainst BRADE ([1]; 2 DAA): 18.33 | herbicidal action aaainst BRADE ([1]; 3 DAA): 24.66 | herbicidal action aaainst BRADE ([1]; 7 DAA): 26 | herbicidal action against BRADE ([1]; 1 DAA): 9.66 | herbicidal action against BRADE ([1]; 2 DAA): 16 | herbicidal action against BRADE ([1]; 3 DAA): 22.66 | herbicidal action against BRADE ([1]; 7 DAA): 25.33 | herbicidal action against Euphorbia heterophylla (EUPHO) ([2]; 1 DAA): 9.66 | herbicidal action against Euphorbia heterophylla (EUPHO) ([2]; 2 DAA): 19 | herbicidal action against Euphorbia heterophylla (EUPHO) ([2]; 3 DAA): 37 | herbicidal action against Euphorbia heterophylla (EUPHO) ([2]; 7 DAA): 47 | herbicidal action against EUPHO ([2]; simulated rainfall 15 min after treatment, 1 DAA, Example 13.2): 20.66 | herbicidal action against EUPHO ([2]; simulated rainfall 15 min after treatment, 2 DAA, Example 13.2): 39 | herbicidal action against EUPHO ([2]; simulated rainfall 15 min after treatment, 3 DAA, Example 13.2): 40 | herbicidal action against EUPHO ([2]; simulated rainfall 15 min after treatment, 7 DAA, Example 13.2): 74.33 | herbicidal action against EUPHO ([2]; simulated rainfall 2 hours after treatment, 1 DAA, Example 13.3): 18 | herbicidal action against EUPHO ([2]; simulated rainfall 2 hours after treatment, 2 DAA, Example 13.3): 42 | herbicidal action against EUPHO ([2]; simulated rainfall 2 hours after treatment, 3 DAA, Example 13.3): 39 | herbicidal action against EUPHO ([2]; simulated rainfall 2 hours after treatment, 7 DAA, Example 13.3): 73.33 | herbicidal action against Echinochloa colonum (ECHCO) ([3]; 2 DAA): 61.66 | herbicidal action against Echinochloa colonum (ECHCO) ([3]; 3 DAA): 76.66 | herbicidal action against Echinochloa colonum (ECHCO) ([3]; 7 DAA): 75.33 | herbicidal action against ECHCO ([3]; simulated rainfall 15 min after treatment, 2 DAA, Example 12.2): 46.66 | herbicidal action against ECHCO ([3]; simulated rainfall 15 min after treatment, 3 DAA, Example 12.2): 57.66 | herbicidal action against ECHCO ([3]; simulated rainfall 15 min after treatment, 7 DAA, Example 12.2): 46.33 | herbicidal action against ECHCO ([3]; simulated rainfall 30 min after treatment, 2 DAA, Example 12.3): 53 | herbicidal action against ECHCO ([3]; simulated rainfall 30 min after treatment, 3 DAA, Example 12.3): 60 | herbicidal action against ECHCO ([3]; simulated rainfall 30 min after treatment, 7 DAA, Example 12.3): 46 | herbicidal action against ECHCO ([3]; simulated rainfall 2 hours after treatment, 2 DAA, Example 12.4): 48.33 | herbicidal action against ECHCO ([3]; simulated rainfall 2 hours after treatment, 3 DAA, Example 12.4): 63.33 | herbicidal action against ECHCO ([3]; simulated rainfall 2 hours after treatment, 7 DAA, Example 12.4): 39.33
